According to patent US10112941B2, “Tricyclic compounds as anticancer agents” (BRISTOL-MYERS SQUIBB COMPANY, priority 2013, dated 2018):
pIC50: −log10 of the molar value.

These molecules were tested against BRD4 (Homo sapiens, UniProt O60885) (assay: Time Resolved Fluorescence Resonance Energy Transfer (TR-FRET) binding assay, BRD4). Details: one of the FRET assays described; read-out: FRET BRD4 IC50.

`Cc1noc(C)c1-c1cnc2c3ccc(C(C)(C)O)cc3n(Cc3ccccc3)c2c1` [Example 46, 2-[5-Benzyl-3-(dimethyl-1,2-oxazol-4-yl)-5H-pyrido[3,2-b]indol-7-yl]propan-2-ol] and `Cc1noc(C)c1-c1cnc2c3ccc(C(C)(C)O)cc3n([C@H](CCC(F)(F)F)c3ccccn3)c2c1` [Example 24] cannot be ordered by pIC50: greater than 5.82 for the first, greater than 5.82 for the second.

`Cc1nnn(C)c1-c1cnc2c3ccc(C(=O)N4CC(F)(F)C4)cc3n([C@H](c3ccccc3)C3CCOCC3)c2c1` [Example 414, 5-[7-(3,3-Difluoroazetidine-1-carbonyl)-5-[(S)-oxan-4-yl(phenyl)methyl]-5H-pyrido[3,2-b]indol-3-yl]-1,4-dimethyl-1H-1,2,3-triazole] and `Cc1nnn(C)c1-c1cnc2c3ccc(C(C)(C)N)cc3n(C(c3ccccc3)C3CCOCC3)c2c1` (single isomer, unassigned) [Example 165, 2-[3-(Dimethyl-1H-1,2,3-triazol-5-yl)-5-[oxan-4-yl(phenyl)methyl]-5H-pyrido[3,2-b]indol-7-yl]propan-2-amine] cannot be ordered by pIC50: greater than 8.30 for the first, greater than 8.30 for the second.

`[2H]C([2H])([2H])c1nnn(C)c1-c1cnc2c3ccc(C(C)(C)O)c(F)c3n(C(c3ccc(F)cn3)C3CCOCC3)c2c1` (single isomer, unassigned) [Example 324] and `[2H]C([2H])([2H])c1nnn(C)c1-c1cnc2c3ccc(C(C)(C)O)cc3n(C(c3ncccc3F)C3CCOCC3)c2c1` (single isomer, unassigned) [Example 316] cannot be ordered by pIC50: greater than 7.60 for the first, greater than 8.30 for the second.

`Cc1nnn(C)c1-c1cnc2c3ccc(S(C)(=O)=O)cc3n([C@H](c3ccc(F)cc3)C3CCOCC3)c2c1` [Example 178, 5-{5-[(S)-(4-Fluorophenyl)(oxan-4-yl)methyl]-7-methanesulfonyl-5H-pyrido[3,2-b]indol-3-yl}-1,4-dimethyl-1H-1,2,3-triazole] and `Cc1nnn(C)c1-c1cnc2c3ccc(C(C)(C)O)cc3n([C@H](c3ccc(F)cc3)C3CCOCC3)c2c1` [Example 72] cannot be ordered by pIC50: greater than 8.30 for the first, greater than 7.60 for the second.

`Cc1nnn(C)c1-c1cnc2c3ccc(C(C)(C)O)cc3n(C(c3cccc(Cl)c3)C3CCOCC3)c2c1` (single isomer, unassigned) [Example 401] and `Cc1nnn(C)c1-c1cnc2c3ccc(C(C)(C)O)cc3n(C(c3ncccc3Cl)C3CCOCC3)c2c1` (single isomer, unassigned) [Example 303] cannot be ordered by pIC50: greater than 8.30 for the first, greater than 8.30 for the second.

`Cc1noc(C)c1-c1cnc2c3ccc(C(C)(C)O)cc3n(C(c3cc(F)cc(F)c3)C3CCOCC3)c2c1` (single isomer, unassigned) [Example 129, 2-{5-[(3,5-Difluorophenyl)(oxan-4-yl)methyl]-3-(dimethyl-1,2-oxazol-4-yl)-5H-pyrido[3,2-b]indol-7-yl}propan-2-ol] and `[2H]C([2H])([2H])c1onc(C)c1-c1cnc2c3ccc(C(C)(C)O)cc3n([C@H](c3ccccc3)C3CCOCC3)c2c1` [Example 192, 2-{3-[5-(^2H3)Methyl-3-methyl-1,2-oxazol-4-yl]-5-[(S)-oxan-4-yl(phenyl)methyl]-5H-pyrido[3,2-b]indol-7-yl}propan-2-ol] cannot be ordered by pIC50: greater than 5.82 for the first, greater than 8.30 for the second.

`Cc1nnn(C)c1-c1cnc2c3cc(C(C)(C)O)ccc3n([C@H](c3ccccc3)C3CCOCC3)c2c1` [Example 175, 2-[3-(Dimethyl-1H-1,2,3-triazol-5-yl)-5-[(S)-oxan-4-yl(phenyl)methyl]-5H-pyrido[3,2-b]indol-8-yl]propan-2-ol] and `Cc1nnn(C)c1-c1cnc2c3ccc(C(C)(C)O)cc3n(C(c3ccccc3)C3CCC(F)(F)CC3)c2c1` (single isomer, unassigned) [Example 206] cannot be ordered by pIC50: greater than 8.30 for the first, greater than 8.30 for the second.

`[2H]C([2H])([2H])c1nnn(C)c1-c1cnc2c3c(NCCCC(=O)O)ccc(S(C)(=O)=O)c3n([C@H](c3ccccc3)C3CCOCC3)c2c1` [Example 225, 4-({6-Methanesulfonyl-3-[4-(^2H3)methyl-1-methyl-1H-1,2,3-triazol-5-yl]-5-[(S)-oxan-4-yl(phenyl)methyl]-5H-pyrido[3,2-b]indol-9-yl}amino)butanoic acid] and `COc1ccc(S(C)(=O)=O)c2c1c1ncc(-c3c(C)nnn3C)cc1n2[C@H](c1ccccc1)C1CCOCC1` [Example 182, 5-{6-Methanesulfonyl-9-methoxy-5-[(S)-oxan-4-yl(phenyl)methyl]-5H-pyrido[3,2-b]indol-3-yl}-1,4-dimethyl-1H-1,2,3-triazole] cannot be ordered by pIC50: greater than 7.60 for the first, greater than 8.30 for the second.

`Cc1nnn(C)c1-c1cnc2c3ccc(S(C)(=O)=O)cc3n(C(c3ccccc3)C3CCC(F)(F)CC3)c2c1` (single isomer, unassigned) [Example 156, 5-{5-[(4,4-Difluorocyclohexyl)(phenyl)methyl]-7-methanesulfonyl-5H-pyrido[3,2-b]indol-3-yl}-1,4-dimethyl-1H-1,2,3-triazole] and `[2H]C([2H])([2H])c1nnn(C)c1-c1cnc2c3ccc(S(C)(=O)=O)cc3n(C(c3ccccc3)C3CCC(F)(F)CC3)c2c1` (stereo not drawn) [Example 159, 5-{5-[(4,4-Difluorocyclohexyl)(phenyl)methyl]-7-methanesulfonyl-5H-pyrido[3,2-b]indol-3-yl}-4-(^2H3)methyl-1-methyl-1H-1,2,3-triazole] cannot be ordered by pIC50: greater than 8.30 for the first, greater than 8.30 for the second.

`Cc1nnn(C)c1-c1cnc2c3c(C(=O)NC4CC4)cccc3n([C@H](c3ccccc3)C3CCOCC3)c2c1` [Example 151, N-Cyclopropyl-3-(dimethyl-1H-1,2,3-triazol-5-yl)-5-[(S)-oxan-4-yl(phenyl)methyl]-5H-pyrido[3,2-b]indole-9-carboxamide] and `Cc1nnn(C)c1-c1cnc2c3cc(F)c(C(C)(O)C4CC4)c(F)c3n([C@H](c3ccccc3)C3CCOCC3)c2c1` (single isomer, unassigned) [Example 450] cannot be ordered by pIC50: greater than 8.30 for the first, greater than 8.30 for the second.

`Cc1noc(C(C2CCOCC2)n2c3cc(C(C)(C)O)ccc3c3ncc(-c4c(C)nnn4C)cc32)n1` (single isomer, unassigned) [Example 299] and `Cc1cc(C(C2CCOCC2)n2c3cc(C(C)(C)O)ccc3c3ncc(-c4c(C)nnn4C)cc32)no1` (single isomer, unassigned) [Example 286, 2-[3-(Dimethyl-1H-1,2,3-triazol-5-yl)-5-[(5-methyl-1,2-oxazol-3-yl)(oxan-4-yl)methyl]-5H-pyrido[3,2-b]indol-7-yl]propan-2-ol] cannot be ordered by pIC50: greater than 8.30 for the first, greater than 8.30 for the second.

`[2H]C([2H])([2H])c1onc(C)c1-c1cnc2c3ccc(C(C)(C)O)cc3n(C([2H])(c3ccncc3F)C3CCOCC3)c2c1` (stereo not drawn) [Example 343, 2-{5-[(3-Fluoropyridin-4-yl)(oxan-4-yl)(^2H)methyl]-3-[5-(^2H3)methyl-3-methyl-1,2-oxazol-4-yl]-5H-pyrido[3,2-b]indol-7-yl}propan-2-ol] and `[2H]C([2H])([2H])c1nnn(C)c1-c1cnc2c3ccc(C(C)(C)O)cc3n(C(c3ccncc3F)C3CCOCC3)c2c1` (single isomer, unassigned) [Example 311] cannot be ordered by pIC50: greater than 8.30 for the first, greater than 8.30 for the second.

`Cc1nnn(C)c1-c1cnc2c3ccc(C(C)(C)O)cc3n(C(c3cccc(F)c3F)C3CCOCC3)c2c1` (single isomer, unassigned) [Example 95, 2-{5-[(2,3-Difluorophenyl)(oxan-4-yl)methyl]-3-(dimethyl-1H-1,2,3-triazol-5-yl)-5H-pyrido[3,2-b]indol-7-yl}propan-2-ol] and `COc1cc(F)c(C(C2CCOCC2)n2c3cc(C(C)(C)O)ccc3c3ncc(-c4c(C)nnn4C)cc32)cc1F` (single isomer, unassigned) [Example 123, 2-{5-[(2,5-Difluoro-4-methoxyphenyl)(oxan-4-yl)methyl]-3-(dimethyl-1H-1,2,3-triazol-5-yl)-5H-pyrido[3,2-b]indol-7-yl}propan-2-ol] cannot be ordered by pIC50: greater than 8.30 for the first, greater than 8.30 for the second.

`Cc1nnn(C)c1-c1cnc2c3ccc(C(C)(C)O)cc3n(C(CCC(F)(F)F)c3ccccn3)c2c1` (single isomer, unassigned) [Example 254, 2-[3-(Dimethyl-1H-1,2,3-triazol-5-yl)-5-[4,4,4-trifluoro-1-(pyridin-2-yl)butyl]-5H-pyrido[3,2-b]indol-7-yl]propan-2-ol] and `Cc1noc(C)c1-c1cnc2c3ccc(C(C)(C)O)cc3n(C(CCC(F)(F)F)c3cnoc3)c2c1` (single isomer, unassigned) [Example 37, 2-[3-(Dimethyl-1,2-oxazol-4-yl)-5-[4,4,4-trifluoro-1-(1,2-oxazol-4-yl)butyl]-5H-pyrido[3,2-b]indol-7-yl]propan-2-ol] cannot be ordered by pIC50: greater than 8.30 for the first, greater than 8.30 for the second.

`[2H]C([2H])([2H])c1nnn(C)c1-c1cnc2c3c(S(C)(=O)=O)cc(F)c(F)c3n(C(c3ccccc3)C3CCC(F)(F)CC3)c2c1` (single isomer, unassigned) [Example 164, 5-{5-[(4,4-Difluorocyclohexyl)(phenyl)methyl]-6,7-difluoro-9-methanesulfonyl-5H-pyrido[3,2-b]indol-3-yl}-4-(^2H3)methyl-1-methyl-1H-1,2,3-triazole] and `[2H]C([2H])([2H])c1nnn(C)c1-c1cnc2c3c(OC)cc(S(C)(=O)=O)cc3n(C(c3ncccc3F)C3CCC(F)(F)CC3)c2c1` (single isomer, unassigned) [Example 213, 2-[(4,4-Difluorocyclohexyl)({7-methanesulfonyl-9-methoxy-3-[4-(^2H3)methyl-1-methyl-1H-1,2,3-triazol-5-yl]-5H-pyrido[3,2-b]indol-5-yl})methyl]-3-fluoropyridine] cannot be ordered by pIC50: greater than 8.30 for the first, greater than 8.30 for the second.

`[2H]C([2H])([2H])c1nnn(C)c1-c1cnc2c3c(OCC(F)F)ccc(S(C)(=O)=O)c3n(C(c3ncccc3F)C3CCOCC3)c2c1` (stereo not drawn) [Example 246, 2-{[9-(2,2-Difluoroethoxy)-6-methanesulfonyl-3-[4-(^2H3)methyl-1-methyl-1H-1,2,3-triazol-5-yl]-5H-pyrido[3,2-b]indol-5-yl](oxan-4-yl)methyl}-3-fluoropyridine] and `COc1ccc(S(C)(=O)=O)c2c1c1ncc(-c3c(C)nnn3C)cc1n2[C@H](c1ccc(F)cc1)C1CCOCC1` [Example 190, 5-{5-[(S)-(4-Fluorophenyl)(oxan-4-yl)methyl]-6-methanesulfonyl-9-methoxy-5H-pyrido[3,2-b]indol-3-yl}-1,4-dimethyl-1H-1,2,3-triazole] cannot be ordered by pIC50: greater than 5.82 for the first, greater than 8.30 for the second.

`[2H]C([2H])([2H])c1nnn(C)c1-c1cnc2c3cc(F)c(C(C)(C)O)cc3n(C(c3cc(OC)ccn3)C3CCOCC3)c2c1` (single isomer, unassigned) [Example 326] gave a pIC50 greater than 7.60.
